The values below come from PubChem BioAssay (NCI).

Test systems include A549 NSCLC; HOP-62 NSCLC; MALME-3M melanoma; NCI-H23 lung; NCI-H522 lung; RPMI-8226 leukemia; SF-539 CNS; SR leukemia; SW-620 colon; UO-31 renal.
Assay in all cases: DTP human tumour cell line panel, 48 h

In general, GI50 refers to the concentration that inhibits growth by half. Broadly, the TGI is the concentration giving total growth inhibition. A low value points to greater sensitivity of the cells.

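Interpolation was linear, between the two tested concentrations surrounding the appropriate level; five concentrations were tested over 48 hours in 96-well plates. GI50 = concentration required for 50% inhibition of growth. At the TGI there is no net growth.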 Bounds are passed on as bounds.

For the compound `COc1nc(=O)n(C2C=CC(=O)O2)cc1F` (stereo not given), the GI50 with A549 NSCLC was 25.9 µM; with HOP-62 NSCLC, 29.7 µM; with MALME-3M melanoma it was 1800 nM; in the experiment on NCI-H23 lung it was 8.06 µM; in the experiment on NCI-H522 lung, 2330 nM; in the experiment with RPMI-8226 leukemia, 3260 nM. The GI50 in the experiment on SF-539 CNS was 2.22 µM; in the experiment with SR leukemia, 1870 nM; in the experiment on SW-620 colon it was 4190 nM; in the experiment on UO-31 renal, 5.18 µM. Besides, the TGI in the experiment on A549 NSCLC is 87.3 µM; in the experiment on HOP-62 NSCLC, 81.2 µM; in the experiment with MALME-3M melanoma, 6.95 µM; in the experiment on NCI-H23 lung, 25.5 µM; in the experiment with NCI-H522 lung, 8.72 µM; with RPMI-8226 leukemia, 13.4 µM. For the same compound, the TGI in the experiment on SF-539 CNS worked out at 5.77 µM; in the experiment on SR leukemia, 5.86 µM; in the experiment with SW-620 colon, 15.8 µM; in the experiment on UO-31 renal, 18.3 µM.
For `CN(C)CCN1CCC(Cc2ccccc2)CC1`, the GI50 in the experiment on A549 NSCLC is more than 80 µM; in the experiment on HOP-62 NSCLC, more than 80 µM; in the experiment on MALME-3M melanoma it was more than 80000 nM; in the experiment on NCI-H23 lung, more than 80 µM; with NCI-H522 lung it was more than 80000 nM; in the experiment on RPMI-8226 leukemia, more than 80000 nM. Moreover, the GI50 with SF-539 CNS is more than 80 µM; in the experiment on SR leukemia, 67300 nM; in the experiment with SW-620 colon, more than 80000 nM; in the experiment on UO-31 renal, more than 80 µM. In addition, the TGI in the experiment with A549 NSCLC, in the experiment with HOP-62 NSCLC, in the experiment with MALME-3M melanoma, in the experiment with NCI-H23 lung, in the experiment with NCI-H522 lung and in the experiment on RPMI-8226 leukemia was more than 80 µM in each case. Also, the TGI in the experiment on SF-539 CNS, in the experiment on SR leukemia, in the experiment with SW-620 colon and with UO-31 renal was more than 80 µM each time.
As for `COc1cc(C[P+](c2ccccc2)(c2ccccc2)c2ccccc2)cc(OC)c1OC`, the TGI in the experiment with A549 NSCLC, with HOP-62 NSCLC, in the experiment with MALME-3M melanoma, with NCI-H23 lung, in the experiment on NCI-H522 lung and in the experiment with RPMI-8226 leukemia was more than 100 µM throughout. Moreover, the total growth inhibition concentration (TGI) in the experiment on SF-539 CNS, in the experiment with SR leukemia, in the experiment with SW-620 colon and in the experiment with UO-31 renal was more than 100 µM each time.
For the compound `CCN(Cc1c(F)cccc1OC)c1ccc(CO)c(Cl)c1`, the GI50 was 2.35 µM in the experiment on A549 NSCLC; 2.69 µM in the experiment on HOP-62 NSCLC; 14000 nM with MALME-3M melanoma; 12.5 µM with NCI-H23 lung; 13000 nM with NCI-H522 lung; 1440 nM with RPMI-8226 leukemia. In addition, the GI50 in the experiment on SF-539 CNS was 16.6 µM; in the experiment with SR leukemia, 18300 nM; in the experiment with SW-620 colon, 714 nM; in the experiment with UO-31 renal it was 14.9 µM. The TGI with A549 NSCLC is 23.1 µM; in the experiment on HOP-62 NSCLC, 25.5 µM; with MALME-3M melanoma, 31.7 µM; in the experiment on NCI-H23 lung, 39.2 µM; in the experiment with NCI-H522 lung, 29.6 µM; in the experiment with RPMI-8226 leukemia, 23.1 µM. Besides, the TGI was 33.1 µM in the experiment on SF-539 CNS, 55.5 µM in the experiment on SR leukemia, more than 77 µM in the experiment on SW-620 colon and 48.8 µM with UO-31 renal.
For `COC(=O)/C=C/c1cc(OC(C)=O)c2c(c1)C(C(=O)OC)C(c1ccc(OC(C)=O)c(OC(C)=O)c1)O2` (stereo not given), the GI50 in the experiment with A549 NSCLC was 1.35 µM; in the experiment with HOP-62 NSCLC, 0.438 µM; in the experiment with MALME-3M melanoma, 1080 nM; in the experiment with NCI-H23 lung, 0.171 µM; in the experiment with NCI-H522 lung, 65.4 nM; in the experiment on RPMI-8226 leukemia, 57.4 nM. In addition, the GI50 was 0.0674 µM in the experiment on SF-539 CNS, 30.3 nM in the experiment with SR leukemia, 46.8 nM in the experiment with SW-620 colon and 0.99 µM with UO-31 renal. Also, the TGI was more than 56.7 µM in the experiment with A549 NSCLC; more than 100 µM with HOP-62 NSCLC; 56.6 µM with MALME-3M melanoma; more than 100 µM in the experiment on NCI-H23 lung; 11.6 µM in the experiment on NCI-H522 lung; 5.25 µM in the experiment with RPMI-8226 leukemia. Further, the concentration for total growth inhibition (TGI) in the experiment with SF-539 CNS is 2.41 µM; with SR leukemia, 30.4 µM; in the experiment with SW-620 colon, more than 100 µM; in the experiment with UO-31 renal it was more than 72.3 µM.
As to `COc1ccc(CNc2c3ccccc3nc3ccccc23)cc1F`, the GI50 in the experiment on A549 NSCLC is 3.55 µM; in the experiment on HOP-62 NSCLC, 4.2 µM; in the experiment with MALME-3M melanoma it was 2710 nM; in the experiment with NCI-H23 lung it was 2.74 µM; in the experiment on NCI-H522 lung, 2010 nM; with RPMI-8226 leukemia, 2640 nM. For the same compound, the GI50 in the experiment with SF-539 CNS is 3.04 µM; with SR leukemia, 2490 nM; in the experiment on SW-620 colon, 2510 nM; in the experiment with UO-31 renal, 1.49 µM. Moreover, the TGI with A549 NSCLC was 18 µM; with HOP-62 NSCLC it was 20.5 µM; in the experiment with MALME-3M melanoma, 7.73 µM; with NCI-H23 lung, 12.9 µM; in the experiment with NCI-H522 lung it was 6.45 µM; in the experiment with RPMI-8226 leukemia, 7.25 µM. The TGI came to 10.7 µM in the experiment on SF-539 CNS, 9.37 µM with SR leukemia, 10.5 µM in the experiment on SW-620 colon and 6.15 µM in the experiment with UO-31 renal.
With `CCCCCCCCCCCC[N+]12CC[N+](CCN)(CC1)CC2`, the concentration for total growth inhibition (TGI) in the experiment on A549 NSCLC, in the experiment on HOP-62 NSCLC, in the experiment on MALME-3M melanoma, with NCI-H23 lung, with NCI-H522 lung and with RPMI-8226 leukemia was more than 100 µM each time. The concentration for total growth inhibition (TGI) was more than 100 µM in the experiment on SF-539 CNS, 81.7 µM with SR leukemia, more than 100 µM in the experiment with SW-620 colon and more than 100 µM with UO-31 renal.
Consider `CC[C@]1(O)C[C@H]2CN(CCc3c([nH]c4ccccc34)C(C(=O)OC)(c3cc4c(cc3OC)N(C)[C@H]3[C@@](O)(C(=O)OC)[C@H](OC(C)=O)[C@]5(CC)[C@@H]6C[C@@H]6CN6CC[C@]43[C@@H]65)C2)C1` (stereo not given in full), for which the 50% growth inhibitory concentration (GI50) with A549 NSCLC is 0.00372 µM; in the experiment with HOP-62 NSCLC it was 0.00365 µM; in the experiment with MALME-3M melanoma, 6.59 nM; with NCI-H23 lung, 0.003 µM; in the experiment on NCI-H522 lung it was less than 1.43 nM; in the experiment on RPMI-8226 leukemia, 4.69 nM. The GI50 was 0.0226 µM in the experiment on SF-539 CNS, 2.11 nM in the experiment with SR leukemia, 5.64 nM with SW-620 colon and 0.076 µM with UO-31 renal. Also, the TGI with A549 NSCLC was more than 14.3 µM; in the experiment with HOP-62 NSCLC, more than 9.22 µM; in the experiment with MALME-3M melanoma, more than 8.73 µM; in the experiment with NCI-H23 lung, 0.498 µM; in the experiment on NCI-H522 lung it was 0.00528 µM; in the experiment with RPMI-8226 leukemia it was 2.07 µM. In addition, the total growth inhibition concentration (TGI) in the experiment with SF-539 CNS was 3.04 µM; with SR leukemia, 3.49 µM; in the experiment with SW-620 colon it was more than 14.3 µM; in the experiment on UO-31 renal it was 7.66 µM.
Take `CCSc1nc(N=Cc2ccccc2O)c2cn[nH]c2n1`: the GI50 in the experiment on A549 NSCLC was 46.2 µM; with HOP-62 NSCLC it was 54.5 µM; with MALME-3M melanoma, 137 nM; in the experiment with NCI-H23 lung, 15.2 µM; with NCI-H522 lung it was 48900 nM; with RPMI-8226 leukemia, 23200 nM. Moreover, the GI50 is 34.2 µM with SF-539 CNS, 7310 nM in the experiment with SR leukemia, 38400 nM in the experiment with SW-620 colon and 61.6 µM in the experiment on UO-31 renal. In addition, the TGI in the experiment with A549 NSCLC was more than 100 µM; in the experiment with HOP-62 NSCLC it was more than 100 µM; with MALME-3M melanoma, 34.7 µM; with NCI-H23 lung it was 34.9 µM; in the experiment with NCI-H522 lung it was more than 100 µM; in the experiment on RPMI-8226 leukemia, more than 100 µM. In addition, the concentration for total growth inhibition (TGI) in the experiment on SF-539 CNS, with SR leukemia, in the experiment with SW-620 colon and in the experiment with UO-31 renal was more than 100 µM in each case.
As to `O=[N+]([O-])c1ccccc1N=Nc1c(O)[nH]c2c(Cl)cc(Cl)cc12`, the TGI is more than 100 µM with A549 NSCLC; more than 23.1 µM in the experiment on HOP-62 NSCLC; more than 95.7 µM with MALME-3M melanoma; more than 100 µM with NCI-H23 lung; more than 100 µM in the experiment on NCI-H522 lung; more than 100 µM with RPMI-8226 leukemia. In addition, the TGI was 50.2 µM in the experiment on SF-539 CNS, 22.6 µM in the experiment with SR leukemia, more than 100 µM in the experiment on SW-620 colon and more than 100 µM with UO-31 renal.
In the case of `Cc1ccc2c(c1)c1ccc3c(c1n2C)C(=O)C=CC3=O`, the TGI is more than 10 µM in the experiment on A549 NSCLC; more than 10 µM with HOP-62 NSCLC; 3.8 µM in the experiment with MALME-3M melanoma; 5.82 µM with NCI-H23 lung; 2.68 µM with NCI-H522 lung; 4.2 µM in the experiment with RPMI-8226 leukemia. Besides, the TGI in the experiment on SF-539 CNS amounted to 4.93 µM; with SR leukemia, 0.871 µM; with SW-620 colon, 2.37 µM; with UO-31 renal, 3.17 µM.
For the compound `O=C(CC(=O)Nc1ccccc1)NNC(Sc1ccccc1)c1cc(N=Nc2ccc(Br)cc2)ccc1O` (stereo not given), the concentration for total growth inhibition (TGI) in the experiment with A549 NSCLC, in the experiment on HOP-62 NSCLC, in the experiment with MALME-3M melanoma, in the experiment with NCI-H23 lung, in the experiment with NCI-H522 lung and in the experiment with RPMI-8226 leukemia was more than 10 µM throughout. Also, the TGI in the experiment on SF-539 CNS was 7.91 µM; with SR leukemia it was more than 10 µM; in the experiment with SW-620 colon it was more than 10 µM; in the experiment with UO-31 renal, more than 10 µM.
As to `COc1ccc(/C=C\c2cc(OC)c(OC)c(OC)c2)cc1OCC(=O)O`, the total growth inhibition concentration (TGI) is more than 100 µM with A549 NSCLC; more than 100 µM with HOP-62 NSCLC; more than 100 µM with MALME-3M melanoma; 12.5 µM in the experiment with NCI-H23 lung; 9.01 µM with NCI-H522 lung; more than 100 µM with RPMI-8226 leukemia. Moreover, the concentration for total growth inhibition (TGI) in the experiment on SF-539 CNS was 11.5 µM; in the experiment with SR leukemia, more than 100 µM; in the experiment with SW-620 colon, more than 100 µM; with UO-31 renal it was more than 94.8 µM.
